Active and inactive are the calls of the source. The calls are words filed in the database; no cut-off is given here.
Experiments:
[1] = Toxicity in Balb/c mouse assessed as effect on lung at 6 mg/kg, iv measured after 14 days by H and E staining based analysis; format: organism-based; settings: in vivo, 336 h, time 14 day
[2] = test system: HepG2; test: Induction of apoptosis in human HepG2 cells assessed as necrotic cells at 10 uM incubated for 48 hrs by annexin V-FITC/PI staining based flow cytometry analysis (reference value: 0%); format: functional
[3] = test system: HepG2; test: Upregulation of p53 level in human HepG2 cells at 5 to 20 uM measured after 48 hrs by Western blot analysis; format: functional, cell-based; settings: dose 5-20 µM
[4] = test system: HepG2; test: Induction of morphological changes in human HepG2 cells assessed as deterioration of cell membrane integrity at 40 uM measured after 12 to 24 hrs by fluorescence inverted microscopic analysis; format: functional, cell-based; settings: time 12-24 hrs
[5] = test system: HepG2; test: Induction of cell cycle arrest in human HepG2 cells assessed as accumulation of cells at >G2/M phase at 10 uM incubated for 24 hrs by PI staining based flow cytometry analysis (reference value: 28.0%); format: functional
[6] = Antiproliferative activity against mouse L929 cells incubated for 48 hrs by MTT assay; format: toxicity, cell-based
[7] = test system: HepG2; test: Induction of apoptosis in human HepG2 cells assessed as late apoptotic cells at 20 uM incubated for 48 hrs by annexin V-FITC/PI staining based flow cytometry analysis (reference value: 0.16%); format: functional
[8] = Upregulation of SESN3 expression level in human HepG2 cells assessed as fold change by KEGG enrichment analysis; format: functional
[9] = test system: HepG2; test: Induction of cell cycle arrest in human HepG2 cells assessed as accumulation of cells at S phase at 10 uM incubated for 24 hrs by PI staining based flow cytometry analysis (reference value: 39.6%); format: functional
[10] = Downregulation of NOTCH3 expression level in human HepG2 cells assessed as fold change by KEGG enrichment analysis; format: functional
[11] = Toxicity in Balb/c mouse assessed as effect on tumor at 6 mg/kg, iv measured after 14 days by H and E staining based analysis; format: organism-based; settings: in vivo, 336 h, time 14 day
[12] = test system: HepG2; test: Induction of cell cycle arrest in human HepG2 cells assessed as accumulation of cells at G2/M phase at 5 uM incubated for 48 hrs by PI staining based flow cytometry analysis (reference value: 6.38%); format: functional
[13] = test system: HepG2; test: Induction of cell cycle arrest in human HepG2 cells assessed as accumulation of cells at G2/M phase at 10 uM incubated for 24 hrs by PI staining based flow cytometry analysis (reference value: 6.38%); format: functional
[14] = test system: HepG2; test: Induction of apoptosis in human HepG2 cells assessed as increase in intracellular calcium level at 10 uM measured after 24 hrs by fluo-3AM dye based flow cytometry analysis; format: functional, cell-based
[15] = Upregulation of CDKN1A expression level in human HepG2 cells assessed as fold change by KEGG enrichment analysis; format: functional
[16] = Upregulation of SOCS1 expression level in human HepG2 cells assessed as fold change by KEGG enrichment analysis; format: functional
[17] = test system: HepG2; test: Induction of cell cycle arrest in human HepG2 cells assessed as accumulation of cells at S phase at 5 uM incubated for 48 hrs by PI staining based flow cytometry analysis (reference value: 39.6%); format: functional
[18] = test system: HepG2; test: Induction of apoptosis in human HepG2 cells assessed as necrotic cells at 5 uM incubated for 48 hrs by annexin V-FITC/PI staining based flow cytometry analysis (reference value: 0%); format: functional
[19] = test system: HepG2; test: Induction of cell cycle arrest in human HepG2 cells assessed as assessed as accumulation of cells at >G2/M phase at 10 uM incubated for 12 hrs by PI staining based flow cytometry analysis (reference value: 28.0%); format: functional
[20] = Upregulation of PGF expression level in human HepG2 cells assessed as fold change by KEGG enrichment analysis; format: functional
[21] = test system: HepG2; test: Induction of apoptosis in human HepG2 cells assessed as late apoptotic cells at 10 uM incubated for 48 hrs by annexin V-FITC/PI staining based flow cytometry analysis (reference value: 0.16%); format: functional
[22] = test system: HepG2; test: Induction of cell cycle arrest in human HepG2 cells assessed as accumulation of cells at S phase at 10 uM incubated for 48 hrs by PI staining based flow cytometry analysis (reference value: 39.6%); format: functional

CC(C)C[C@H]1NC(=O)[C@H]([C@@H](C)OCc2ccccc2)NC(=O)[C@H]2CCCN2C(=O)CN2C(=O)c3ccccc3[C@@]2(O)CN(Cc2ccccc2)C(=O)[C@H](Cc2ccccc2)NC(=O)[C@H]2CCCN2C(=O)[C@H](Cc2c[nH]c3ccccc23)NC1=O
Activity [1]: Non-Toxic
Activity [2]: 0%
Activity [3]: Active
Activity [4]: Active
Activity [5]: 13.5%
IC50 at 48 h [6]: > 100 µM
Activity [7]: 6.88%
fold change (FC) [8]: 1.529
Activity [9]: 14.3%
fold change (FC) [10]: -1.52
Activity [11]: Non-Toxic
Activity [12]: 18.9%
Activity [13]: 13%
Activity [14]: Active
fold change (FC) [15]: 1.175
fold change (FC) [16]: 1.707
Activity [17]: 12.3%
Activity [18]: 0%
Activity [19]: 4.68%
fold change (FC) [20]: 2.135
Activity [21]: 4.57%
Activity [22]: 23.3%
